Assay results: patent publication US9227921B2, “Salts and polymorphs of a tetracycline compound” (Paratek Pharmaceuticals, Inc., priority 2008, dated 2016)

Assays:
[1] = Stability studies on free base Compound 1 and amorphous diHCl salt; format: physicochemical
Method: Stability studies were performed on the free base Compound 1 and an amorphous diHCl salt of Compound 1. This salt was formed by dissolving the compound in aqueous solution, adjusting the pH of the solution to approximately 4.2, followed by lyophilization. The free base degraded in less than one month at 40° C., and approximately three months at 4° C. In contrast, the diHCl salt of Compound 1 was stable for 6 months at 40° C., and for two years at room temperature (25° C.).

[2] = Solid phase stability of amorphous Compound 1; format: physicochemical; conditions: temperatures higher than 0° C. and when exposed to air
Source text: Tetracycline-type antibiotic compounds have long been known to have limited stability in the solid phase freebase form. One such non-crystalline tetracycline analog compound, (4S,4AS,5AR,12AS)-4-7-Bis(dimethylamino)-9-{[(2,2-dimethylpropyl)amino]methyl}-3,10,12,12A-tetrahydroxy-1,1′-dioxo-1,4,4A,5,5A,6,11,12A-octahydrotetracene-2-carboxamide (Compound 1; MW=556.66, MF=C29H40N4O7), has limited stability in the solid phase upon exposure to air, light and/or moisture.
Specifically, Compound 1 is a yellow amorphous solid that is unstable at temperatures higher than 0° C. and when exposed to air. Compound 1 must be stored at temperatures below 0° C. with limited exposure in the solid phase to air, light and moisture. Outside of these limited exposure conditions, Compound 1 degrades to produce degradation products including air degradation products 2, 3 and 4, as well as the 4-epi-isomer 5.

time in which the substance degraded ([1]; 4° C.): approximately three
time in which the substance degraded ([1]; 40° C.): less than one
solid phase stability [2]: unstable
Compound: CN(C)c1cc(CNCC(C)(C)C)c(O)c2c1C[C@H]1C[C@H]3[C@H](N(C)C)C(O)=C(C(N)=O)C(=O)[C@@]3(O)C(O)=C1C2=O [Compound 1, (4S,4AS,5AR,12AS)-4-7-Bis(dimethylamino)-9{[(2,2-dimethylpropyl)amino]methyl}-3,10,12,12A-tetrahydroxy-1,1′-dioxo-1,4,4A,5,5A,6,11,12A-octahydrotetracene-2-carboxamide]
